Where “and” joins values, the source holds several entries; their conditions need not be identical. Identical values can stand only once. Toxic doses and inconclusive results are not listed. Cut-off read from the data, not from the text of the source: active = T/C of 150% or more; inactive = T/C below 125%.
Test system: L1210 leukemia ip in BDF1 mice, survival T/C
Assay: NCI In Vivo Anticancer Drug Screen. Data for tumor model L1210 Leukemia (intraperitoneal) in B6D2F1 (BDF1) mice
Conditions: endpoint: mean survival time, higher = longer survival
Method in brief: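 Ratio derived from survival: compound-dosed mice over vehicle-dosed mice, all bearing a transplantable tumor.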

[1] = dose: 100.0 mg/kg/injection, schedule: Q04DX003 (ip), vehicle: saline
[2] = dose: 200.0 mg/kg/injection, schedule: Q04DX003 (ip), vehicle: saline
[3] = dose: 400.0 mg/kg/injection, schedule: Q04DX003 (ip), vehicle: saline
[4] = dose: 100.0 mg/kg/injection, schedule: Q04DX002 (ip), vehicle: saline with Tween-80
[5] = dose: 200.0 mg/kg/injection, schedule: Q04DX002 (ip), vehicle: saline with Tween-80
[6] = dose: 400.0 mg/kg/injection, schedule: Q04DX002 (ip), vehicle: saline with Tween-80
[7] = dose: 100.0 mg/kg/injection, schedule: Q04DX003 (ip), vehicle: saline with Tween-80
[8] = dose: 200.0 mg/kg/injection, schedule: Q04DX003 (ip), vehicle: saline with Tween-80
[9] = dose: 400.0 mg/kg/injection, schedule: Q04DX003 (ip), vehicle: saline with Tween-80
[10] = dose: 100.0 mg/kg/injection, schedule: Q01DX001 (ip), vehicle: carboxymethylcellulose (CMC)
[11] = dose: 200.0 mg/kg/injection, schedule: Q01DX001 (ip), vehicle: carboxymethylcellulose (CMC)
[12] = dose: 400.0 mg/kg/injection, schedule: Q01DX001 (ip), vehicle: carboxymethylcellulose (CMC)
[13] = dose: 100.0 mg/kg/injection, schedule: Q01DX009 (ip), vehicle: Klucel (hydroxypropylcellulose) (HPC)
[14] = dose: 100.0 mg/kg/injection, schedule: Q04DX003 (ip), vehicle: Klucel (hydroxypropylcellulose) (HPC)
[15] = dose: 200.0 mg/kg/injection, schedule: Q04DX003 (ip), vehicle: Klucel (hydroxypropylcellulose) (HPC)
[16] = dose: 400.0 mg/kg/injection, schedule: Q04DX003 (ip), vehicle: Klucel (hydroxypropylcellulose) (HPC)
[17] = dose: 100.0 mg/kg/injection, schedule: Q01DX001 (ip), vehicle: saline with Tween-80
[18] = dose: 100.0 mg/kg/injection, schedule: Q01DX009 (ip), vehicle: saline with Tween-80
[19] = dose: 200.0 mg/kg/injection, schedule: Q01DX001 (ip), vehicle: saline with Tween-80
[20] = dose: 200.0 mg/kg/injection, schedule: Q01DX009 (ip), vehicle: saline with Tween-80
[21] = dose: 400.0 mg/kg/injection, schedule: Q01DX001 (ip), vehicle: saline with Tween-80
[22] = dose: 400.0 mg/kg/injection, schedule: Q01DX009 (ip), vehicle: saline with Tween-80
[23] = dose: 100.0 mg/kg/injection, schedule: Q01DX001 (ip), vehicle: saline
[24] = dose: 200.0 mg/kg/injection, schedule: Q01DX001 (ip), vehicle: saline
[25] = dose: 400.0 mg/kg/injection, schedule: Q01DX001 (ip), vehicle: saline
[26] = dose: 50.0 mg/kg/injection, schedule: Q01DX001 (ip), vehicle: saline
[27] = dose: 100.0 mg/kg/injection, schedule: Q04DX002 (ip), vehicle: Klucel (hydroxypropylcellulose) (HPC)

Measured: T/C

Nc1ccc2c(c1)C(=O)c1c(C(=O)O)cccc1-2
inactive: dose: 75.0 mg/kg/injection, schedule: Q01DX001 (ip), vehicle: carboxymethylcellulose (CMC) 108 % of control | dose: 150.0 mg/kg/injection, schedule: Q01DX001 (ip), vehicle: carboxymethylcellulose (CMC) 101 % of control

O=[N+]([O-])c1cc(Br)ccc1N1CCCC1
inactive: [1] 88 % of control | [2] 101 % of control | [3] 93 % of control

CC(=O)OCCOc1ccccc1Cl
inactive: [4] 118 % of control | [5] 108 % of control | [6] 114 % of control

CCOC(=O)CCC1(C(=O)OC)C(=O)CCCCCCC1C(=O)OC (stereo not drawn)
inactive: [7] 103 % of control | [8] 99 % of control | [9] 96 % of control

CC1CN1P(=O)(OCCC#N)N1CC1C (stereo not drawn)
inactive: dose: 50.0 mg/kg/injection, schedule: Q01DX009 (ip), vehicle: saline 99 % of control and 111 % of control | dose: 100.0 mg/kg/injection, schedule: Q01DX009 (ip), vehicle: saline 110 % of control and 113 % of control | dose: 132.0 mg/kg/injection, schedule: Q04DX003 (ip), vehicle: acetone 109 % of control | dose: 200.0 mg/kg/injection, schedule: Q01DX009 (ip), vehicle: saline 108 % of control | dose: 400.0 mg/kg/injection, schedule: Q01DX009 (ip), vehicle: saline 96 % of control

CN1CCC(S)(S)CC1
inactive: dose: 12.5 mg/kg/injection, schedule: Q01DX009 (ip), vehicle: saline with Tween-80 105 % of control | dose: 12.5 mg/kg/injection, schedule: Q04DX003 (ip), vehicle: saline with Tween-80 96 % of control | dose: 25.0 mg/kg/injection, schedule: Q01DX009 (ip), vehicle: saline with Tween-80 93 % of control | dose: 25.0 mg/kg/injection, schedule: Q04DX003 (ip), vehicle: saline with Tween-80 102 % of control | dose: 50.0 mg/kg/injection, schedule: Q01DX009 (ip), vehicle: saline with Tween-80 104 % of control | dose: 50.0 mg/kg/injection, schedule: Q04DX003 (ip), vehicle: saline with Tween-80 106 % of control

O=C(O)CNCCN1CC(=O)N(c2ccccc2)C1=S
inactive: [10] 93 % of control | dose: 100.0 mg/kg/injection, schedule: Q01DX009 (ip), vehicle: carboxymethylcellulose (CMC) 94 % of control and 95 % of control | dose: 100.0 mg/kg/injection, schedule: Q04DX002 (ip), vehicle: carboxymethylcellulose (CMC) 97 % of control and 98 % of control | dose: 100.0 mg/kg/injection, schedule: Q04DX003 (ip), vehicle: carboxymethylcellulose (CMC) 98 % of control | [11] 98 % of control | dose: 200.0 mg/kg/injection, schedule: Q01DX009 (ip), vehicle: carboxymethylcellulose (CMC) 94 % of control and 90 % of control | dose: 200.0 mg/kg/injection, schedule: Q04DX002 (ip), vehicle: carboxymethylcellulose (CMC) 91 % of control | dose: 200.0 mg/kg/injection, schedule: Q04DX003 (ip), vehicle: carboxymethylcellulose (CMC) 93 % of control | [12] 95 % of control | dose: 400.0 mg/kg/injection, schedule: Q01DX009 (ip), vehicle: carboxymethylcellulose (CMC) 86 % of control | dose: 400.0 mg/kg/injection, schedule: Q04DX002 (ip), vehicle: carboxymethylcellulose (CMC) 97 % of control and 98 % of control | dose: 400.0 mg/kg/injection, schedule: Q04DX003 (ip), vehicle: carboxymethylcellulose (CMC) 89 % of control

CCOC(=O)c1cc(C(=O)OCC)c(C#N)c(=O)[nH]1
inactive: [13] 103 % of control | [14] 100 % of control | dose: 200.0 mg/kg/injection, schedule: Q01DX009 (ip), vehicle: Klucel (hydroxypropylcellulose) (HPC) 88 % of control | [15] 88 % of control | dose: 400.0 mg/kg/injection, schedule: Q01DX009 (ip), vehicle: Klucel (hydroxypropylcellulose) (HPC) 94 % of control | [16] 98 % of control

CN1CN2c3ccccc3CCC2C2CCCC21 (stereo not drawn)
inactive: dose: 50.0 mg/kg/injection, schedule: Q04DX002 (ip), vehicle: saline with Tween-80 104 % of control | [4] 96 % of control | [5] 101 % of control

Cc1ccc(Cl)cc1NC(=O)Nc1ccccc1C(N)=O
inactive: [17] 98 % of control | [18] 100 % of control and 110 % of control | [4] 93 % of control and 102 % of control | [1] 97 % of control | [19] 92 % of control | [20] 109 % of control and 120 % of control | [5] 93 % of control and 98 % of control | [2] 95 % of control | [21] 101 % of control | [22] 105 % of control and 89 % of control | [6] 95 % of control and 102 % of control | [3] 103 % of control

CCOC(=O)c1ccc(NCC(C)(C)N)cc1
inactive: [1] 97 % of control

O=c1[nH]cc(Nc2ccccc2)c(=O)[nH]1
inactive: [14] 95 % of control | [15] 92 % of control | [16] 88 % of control

CCOc1ncnc2c1nnn2C1OC(CO)C(O)C1O (stereo not drawn)
inactive: dose: 12.5 mg/kg/injection, schedule: Q01DX001 (ip), vehicle: saline with Tween-80 105 % of control | dose: 25.0 mg/kg/injection, schedule: Q01DX001 (ip), vehicle: saline with Tween-80 107 % of control | dose: 50.0 mg/kg/injection, schedule: Q01DX001 (ip), vehicle: saline with Tween-80 105 % of control | [17] 104 % of control | [19] 105 % of control | [21] 108 % of control

Cn1c2nc(=O)[nH]c(=O)c-2cc2ccccc21
inactive: [23] 100 % of control | [24] 94 % of control | [25] 97 % of control

O=C(OCC1OC(c2ccccc2)OC1C1OC(c2ccccc2)OC1COC(=O)c1ccccc1)c1ccccc1 (stereo not drawn)
inactive: [23] 103 % of control | [24] 110 % of control | [25] 110 % of control

O=C1C2(c3ccccc3)CC(Cc3ccccc3)C1(c1ccccc1)C(c1ccccc1)=C2c1ccccc1 (stereo not drawn)
inactive: dose: 50.0 mg/kg/injection, schedule: Q01DX001 (ip), vehicle: carboxymethylcellulose (CMC) 100 % of control | [10] 97 % of control | [11] 111 % of control | [12] 95 % of control

NC(=O)C(CC(=O)OCc1ccccc1)NC(=O)OCc1ccccc1 (stereo not drawn)
inactive: [18] 92 % of control | [20] 90 % of control | [22] 97 % of control

CCCCCC[As](=O)(O)CCCCCC
inactive: [26] 103 % of control

NC(=O)c1c(/N=C/c2ccccc2Cl)sc2c1CCCC2
inactive: [4] 91 % of control | [5] 87 % of control | [6] 91 % of control

O=C(c1ccccc1)c1cc2ccccc2n1S(=O)(=O)c1ccccc1
inactive: [27] 95 % of control | dose: 200.0 mg/kg/injection, schedule: Q04DX002 (ip), vehicle: Klucel (hydroxypropylcellulose) (HPC) 98 % of control | dose: 400.0 mg/kg/injection, schedule: Q04DX002 (ip), vehicle: Klucel (hydroxypropylcellulose) (HPC) 95 % of control

O=C(Nc1cccc(C(=O)O)c1)Nc1ccc(Cl)c(C(F)(F)F)c1
inactive: [18] 87 % of control | [20] 100 % of control

O=C(Nc1ccc(C(=O)Cl)cc1)OCCCl
inactive: [7] 96 % of control | [8] 96 % of control | [9] 96 % of control

O=CC(CCN1CCCCC1)(CCN1CCCCC1)c1cccc2ccccc12
inactive: dose: 25.0 mg/kg/injection, schedule: Q04DX002 (ip), vehicle: Klucel (hydroxypropylcellulose) (HPC) 107 % of control | dose: 50.0 mg/kg/injection, schedule: Q04DX002 (ip), vehicle: Klucel (hydroxypropylcellulose) (HPC) 100 % of control | [13] 105 % of control | [27] 98 % of control

CCN(CC)CCC(=O)c1ccc2oc3ccccc3c2c1
inactive: dose: 12.0 mg/kg/injection, schedule: Q01DX001 (ip), vehicle: saline 100 % of control | dose: 25.0 mg/kg/injection, schedule: Q01DX001 (ip), vehicle: saline 90 % of control | [26] 103 % of control | [23] 113 % of control
